Assay results from patent US9446039B2, “Aminoheteroaryl compounds as MTH1 inhibitors” (CEMM—FORSCHUNGSZENTRUM FÜR MOLEKULARE MEDIZIN GMBH, priority 2012, dated 2016).

Key:
Type in all cases: binding
[1] = biological target: T1, SW480 colon carcinoma cells lysate proteins (Homo sapiens, UniProt P11169); settings: PreyGene SLC2A3
T1 sequence (P11169 1-496): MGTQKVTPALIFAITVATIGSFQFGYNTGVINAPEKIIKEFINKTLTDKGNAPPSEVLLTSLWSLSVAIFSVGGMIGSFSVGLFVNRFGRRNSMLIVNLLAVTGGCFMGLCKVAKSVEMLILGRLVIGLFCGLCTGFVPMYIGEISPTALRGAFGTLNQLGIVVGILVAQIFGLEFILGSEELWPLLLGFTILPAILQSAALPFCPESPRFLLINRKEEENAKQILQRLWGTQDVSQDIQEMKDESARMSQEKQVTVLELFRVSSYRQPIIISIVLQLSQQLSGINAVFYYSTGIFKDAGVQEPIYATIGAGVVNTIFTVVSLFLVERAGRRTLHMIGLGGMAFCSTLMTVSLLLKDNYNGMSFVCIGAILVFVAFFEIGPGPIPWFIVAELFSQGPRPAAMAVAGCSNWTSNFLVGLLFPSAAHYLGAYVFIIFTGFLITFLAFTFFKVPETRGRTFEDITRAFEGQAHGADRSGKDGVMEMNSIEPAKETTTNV

[2] = biological target: SW480 colon carcinoma cells lysate proteins (Homo sapiens, UniProt Q15056); settings: PreyGene EIF4H
[3] = biological target: SW480 colon carcinoma cells lysate proteins (Homo sapiens, UniProt Q14240); settings: PreyGene EIF4A2; SW480 cells
[4] = biological target: SW480 colon carcinoma cells lysate proteins (Homo sapiens, UniProt P83731); settings: PreyGene RPL24; SW480 cells
[5] = biological target: T2, SW480 colon carcinoma cells lysate proteins (Homo sapiens, UniProt P40926); settings: PreyGene MDH2
T2 sequence (P40926 25-338): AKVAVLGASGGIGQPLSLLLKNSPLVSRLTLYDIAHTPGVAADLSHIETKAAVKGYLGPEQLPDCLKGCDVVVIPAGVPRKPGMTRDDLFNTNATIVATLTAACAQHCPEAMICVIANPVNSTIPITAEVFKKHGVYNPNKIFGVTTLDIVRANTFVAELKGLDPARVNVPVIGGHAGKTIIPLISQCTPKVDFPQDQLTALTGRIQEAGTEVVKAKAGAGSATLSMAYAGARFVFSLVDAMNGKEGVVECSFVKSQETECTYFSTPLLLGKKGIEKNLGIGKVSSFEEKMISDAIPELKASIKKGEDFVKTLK

[6] = biological target: T3, SW480 colon carcinoma cells lysate proteins (Homo sapiens, UniProt P30101); settings: PreyGene PDIA3
T3 sequence (P30101 25-505): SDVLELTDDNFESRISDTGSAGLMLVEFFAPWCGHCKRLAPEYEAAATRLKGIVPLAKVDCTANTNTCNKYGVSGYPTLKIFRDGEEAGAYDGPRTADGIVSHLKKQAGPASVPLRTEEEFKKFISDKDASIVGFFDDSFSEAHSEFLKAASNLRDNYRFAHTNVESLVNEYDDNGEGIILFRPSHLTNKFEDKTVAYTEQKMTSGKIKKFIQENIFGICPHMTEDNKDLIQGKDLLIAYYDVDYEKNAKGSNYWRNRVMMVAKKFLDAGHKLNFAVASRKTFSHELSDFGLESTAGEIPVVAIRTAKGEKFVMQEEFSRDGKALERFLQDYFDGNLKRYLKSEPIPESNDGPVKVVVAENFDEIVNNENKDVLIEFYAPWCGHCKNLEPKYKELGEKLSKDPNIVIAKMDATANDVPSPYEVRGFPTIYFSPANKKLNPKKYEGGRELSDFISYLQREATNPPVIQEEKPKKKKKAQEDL

[7] = biological target: T4, SW480 colon carcinoma cells lysate proteins (Homo sapiens, UniProt Q13126); settings: PreyGene MTAP; SW480 cells
T4 sequence (Q13126 1-283): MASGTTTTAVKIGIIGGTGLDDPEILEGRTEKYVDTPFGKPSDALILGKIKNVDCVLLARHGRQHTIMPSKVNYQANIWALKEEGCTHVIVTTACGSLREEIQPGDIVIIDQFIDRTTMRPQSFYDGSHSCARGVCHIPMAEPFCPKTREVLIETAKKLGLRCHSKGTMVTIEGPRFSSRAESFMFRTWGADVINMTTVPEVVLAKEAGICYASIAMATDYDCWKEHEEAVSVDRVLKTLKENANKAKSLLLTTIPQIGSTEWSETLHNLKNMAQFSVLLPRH

[8] = biological target: SW480 colon carcinoma cells lysate proteins (Homo sapiens, UniProt P26038); settings: PreyGene MSN
[9] = biological target: SW480 colon carcinoma cells lysate proteins (Homo sapiens, UniProt P18669); settings: PreyGene PGAM1
SW480 colon carcinoma cells lysate proteins (Homo sapiens, UniProt P18669), sequence (P18669 whole entry): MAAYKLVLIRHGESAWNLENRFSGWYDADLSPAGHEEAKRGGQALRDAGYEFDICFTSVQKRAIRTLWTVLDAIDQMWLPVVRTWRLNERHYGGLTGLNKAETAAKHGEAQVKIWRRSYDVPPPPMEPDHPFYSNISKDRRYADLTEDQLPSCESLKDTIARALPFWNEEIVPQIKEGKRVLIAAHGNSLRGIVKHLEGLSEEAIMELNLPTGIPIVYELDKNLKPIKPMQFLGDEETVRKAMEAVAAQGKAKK

SW480 colon carcinoma cells lysate proteins (Homo sapiens, UniProt P26038), sequence (P26038 whole entry): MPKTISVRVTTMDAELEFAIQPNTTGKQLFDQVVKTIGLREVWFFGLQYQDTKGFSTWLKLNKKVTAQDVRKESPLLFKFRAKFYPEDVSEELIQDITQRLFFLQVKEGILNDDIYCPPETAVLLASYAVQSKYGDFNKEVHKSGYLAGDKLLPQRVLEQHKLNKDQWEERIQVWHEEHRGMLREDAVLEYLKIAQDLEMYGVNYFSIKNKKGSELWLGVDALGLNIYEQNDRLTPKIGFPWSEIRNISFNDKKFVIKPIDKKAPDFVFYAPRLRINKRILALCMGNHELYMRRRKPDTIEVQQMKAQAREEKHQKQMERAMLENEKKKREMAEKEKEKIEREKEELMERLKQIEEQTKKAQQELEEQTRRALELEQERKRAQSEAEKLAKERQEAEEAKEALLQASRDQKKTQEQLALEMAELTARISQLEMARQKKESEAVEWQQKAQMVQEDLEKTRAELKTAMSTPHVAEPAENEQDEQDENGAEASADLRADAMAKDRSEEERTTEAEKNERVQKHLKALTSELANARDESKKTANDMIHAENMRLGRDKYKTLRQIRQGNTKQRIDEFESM
SW480 colon carcinoma cells lysate proteins (Homo sapiens, UniProt Q14240), sequence (Q14240 whole entry): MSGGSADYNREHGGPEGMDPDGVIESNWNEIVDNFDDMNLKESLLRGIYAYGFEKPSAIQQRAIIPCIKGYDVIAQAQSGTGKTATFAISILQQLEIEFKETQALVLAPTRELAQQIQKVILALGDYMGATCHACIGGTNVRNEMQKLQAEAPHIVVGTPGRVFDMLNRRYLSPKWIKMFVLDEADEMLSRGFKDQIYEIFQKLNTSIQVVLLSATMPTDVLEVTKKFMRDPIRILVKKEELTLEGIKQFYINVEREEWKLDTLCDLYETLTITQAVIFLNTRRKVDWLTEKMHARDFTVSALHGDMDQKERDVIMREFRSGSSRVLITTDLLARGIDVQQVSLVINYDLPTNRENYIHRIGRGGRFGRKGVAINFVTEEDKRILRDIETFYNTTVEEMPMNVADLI

## C[C@H](Oc1cc(-c2cnn(C3CCNCC3)c2)cnc1N)c1c(Cl)ccc(F)c1Cl [(5)-crizotinib]
[1]
  AvgP: 0.1834
  SC.Exp. 1-1: 3
  SC.Exp. 1-2: 0
  SC.Exp. 2-1: 0
  SC.Exp. 2-2: 0
  Sum (SC.Exp.): 3
[2]
  AvgP: 0.4095
  SC.Exp. 1-1: 3
  SC.Exp. 1-2: 2
  SC.Exp. 2-1: 0
  SC.Exp. 2-2: 0
  Sum (SC.Exp.): 5
[3]
  AvgP: 0
  SC.Exp. 1-1: 1
  SC.Exp. 1-2: 1
  SC.Exp. 2-1: 0
  SC.Exp. 2-2: 1
  SC.Exp. Sum: 3
[4]
  AvgP: 0
  SC.Exp. 1-1: 4
  SC.Exp. 1-2: 4
  SC.Exp. 2-1: 3
  SC.Exp. 2-2: 4
  SC.Exp. Sum: 15
[5]
  AvgP: 0.4441
  SC.Exp. 1-1: 5
  SC.Exp. 1-2: 5
  SC.Exp. 2-1: 0
  SC.Exp. 2-2: 0
  Sum (SC.Exp.): 10
[6]
  AvgP: 0.4952
  SC.Exp. 1-1: 8
  SC.Exp. 1-2: 7
  SC.Exp. 2-1: 0
  SC.Exp. 2-2: 0
  Sum (SC.Exp.): 15
[7]
  AvgP: 0
  SC.Exp. 1-1: 1
  SC.Exp. 1-2: 1
  SC.Exp. 2-1: 0
  SC.Exp. 2-2: 0
  SC.Exp. Sum: 2
[8]
  AvgP: 0.2291
  SC.Exp. 1-1: 11
  SC.Exp. 1-2: 11
  SC.Exp. 2-1: 0
  SC.Exp. 2-2: 0
  Sum (SC.Exp.): 22
[9]
  AvgP: 0.4721
  SC.Exp. 1-1: 6
  SC.Exp. 1-2: 6
  SC.Exp. 2-1: 0
  SC.Exp. 2-2: 0
  Sum (SC.Exp.): 12
